Assay [1] in a line: Inhibition of Leukotriene biosynthesis in human PMNL cells preincubated for 2 mins followed by calcium ionophore A23187 addition and measured after 5 mins by radioimmunoassay. It is filed as functional, cell-based.
In assay [2] the target is T1, Polyunsaturated fatty acid 5-lipoxygenase (Rattus norvegicus, UniProt P12527).
T1 sequence (P12527 whole entry): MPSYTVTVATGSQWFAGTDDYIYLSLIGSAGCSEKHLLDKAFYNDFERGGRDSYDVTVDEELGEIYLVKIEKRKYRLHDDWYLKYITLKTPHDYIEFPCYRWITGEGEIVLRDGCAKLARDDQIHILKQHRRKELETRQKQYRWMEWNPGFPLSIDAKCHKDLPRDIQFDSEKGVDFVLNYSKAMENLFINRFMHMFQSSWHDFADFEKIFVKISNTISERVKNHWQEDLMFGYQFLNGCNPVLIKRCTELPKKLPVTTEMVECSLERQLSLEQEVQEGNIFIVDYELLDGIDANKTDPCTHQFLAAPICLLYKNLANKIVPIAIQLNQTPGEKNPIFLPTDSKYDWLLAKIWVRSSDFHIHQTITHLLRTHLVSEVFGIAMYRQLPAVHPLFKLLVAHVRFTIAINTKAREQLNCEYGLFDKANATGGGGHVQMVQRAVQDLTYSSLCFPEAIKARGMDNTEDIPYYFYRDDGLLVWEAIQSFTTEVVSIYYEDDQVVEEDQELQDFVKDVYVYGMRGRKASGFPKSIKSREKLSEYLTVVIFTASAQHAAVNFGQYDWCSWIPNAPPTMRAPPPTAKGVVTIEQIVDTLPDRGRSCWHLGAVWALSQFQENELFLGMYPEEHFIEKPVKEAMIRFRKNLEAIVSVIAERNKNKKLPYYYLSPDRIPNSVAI
Briefly: Inhibition of 5-LOX in […] rat PMNL cells assessed as reduction in 5-LO product level incubated for 3 mins by scintillation counting method. It counts as cell-based.

In assay [3] the target is T2, Arachidonate 5-lipoxygenase-activating protein (Homo sapiens, UniProt P20292).
T2 sequence (P20292 whole entry): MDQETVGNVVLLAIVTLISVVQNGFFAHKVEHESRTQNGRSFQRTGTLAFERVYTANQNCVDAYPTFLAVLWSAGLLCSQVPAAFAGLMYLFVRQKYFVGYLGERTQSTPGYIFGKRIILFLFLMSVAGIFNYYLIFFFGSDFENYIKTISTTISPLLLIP
As to the kind of experiment: Inhibition of FLAP in human PMNL cells assessed as reduction in all-trans isomers of LTB4 and 5-HETE formation preincubated with enzyme for 15 mins followed by Ca2+ ionophore-A23187 and measured after 10 mins by HPLC analysis. It is filed as cell-based.

The target of assay [4] is T2, Arachidonate 5-lipoxygenase-activating protein. Briefly: Inhibition of FLAP in human monocyte assessed as reduction in all-trans isomers of LTB4 and 5-HETE formation preincubated with enzyme for 15 mins followed by Ca2+ ionophore-A23187 and measured after 10 mins by HPLC analysis. It is filed as cell-based.
For assay [5] the target is unchanged. Briefly: Inhibition of FLAP in human whole blood assessed as reduction in LTB4 level preincubated for 15 mins followed by calcium ionophore A23187 addition and measured after 30 min. It is filed as tissue-based.
Assay [6] has the same target. As to the kind of experiment: Inhibition of FLAP in human whole blood assessed as reduction of LTB4 formation preincubated with enzyme for 15 mins followed by calcimycin addition and measured after 30 mins by HTRF assay. It is filed as tissue-based. (Time-resolved FRET reads energy transfer from a long-lived donor to a nearby acceptor.)
Assay [7] has as its system Rattus norvegicus. Briefly: In vivo inhibition of Leukotriene biosynthesis in pleural inflammation rat model assessed as reduction in LTB4 level at po dosed for 1 hr followed by calcium ionophore A-23187 administration and measured after 30 mins by enzyme immunoassay. It counts as functional. Conditions: time 1.5 hrs.
A short description of assay [8]: Inhibition of Leukotriene biosynthesis in calcium ionophore A-23187 stimulated human PMNL cells assessed as inhibition of LTB4 formation by enzyme immunoassay. It counts as functional, cell-based.
Assay [9] can be described thus: Inhibition of Leukotriene biosynthesis in calcium ionophore A23187 stimulated human PMNL cells assessed as inhibition of LTB4 formation by cellular assay. It counts as functional, cell-based.
For assay [10], the system named is Rattus norvegicus. As to the kind of experiment: Anti-inflammatory activity against anaphylaxis in peritoneal cavity of rat model assessed as reduction in LTB4 level at po dosed by ELISA. It is filed as functional.
The species named for a further assay is Homo sapiens. Briefly: Inhibition of Leukotriene biosynthesis in human whole blood assessed as inhibition of LTB4 formation. It counts as functional.
Assay [11] has as its system Rattus norvegicus. Briefly: In vivo inhibition of Leukotriene biosynthesis in anaphylaxis rat model assessed as reduction in LTB4 level at po dosed. It counts as functional.
Assay [12] addresses T3, Polyunsaturated fatty acid 5-lipoxygenase (Homo sapiens, UniProt P09917).
T3 sequence (P09917 whole entry): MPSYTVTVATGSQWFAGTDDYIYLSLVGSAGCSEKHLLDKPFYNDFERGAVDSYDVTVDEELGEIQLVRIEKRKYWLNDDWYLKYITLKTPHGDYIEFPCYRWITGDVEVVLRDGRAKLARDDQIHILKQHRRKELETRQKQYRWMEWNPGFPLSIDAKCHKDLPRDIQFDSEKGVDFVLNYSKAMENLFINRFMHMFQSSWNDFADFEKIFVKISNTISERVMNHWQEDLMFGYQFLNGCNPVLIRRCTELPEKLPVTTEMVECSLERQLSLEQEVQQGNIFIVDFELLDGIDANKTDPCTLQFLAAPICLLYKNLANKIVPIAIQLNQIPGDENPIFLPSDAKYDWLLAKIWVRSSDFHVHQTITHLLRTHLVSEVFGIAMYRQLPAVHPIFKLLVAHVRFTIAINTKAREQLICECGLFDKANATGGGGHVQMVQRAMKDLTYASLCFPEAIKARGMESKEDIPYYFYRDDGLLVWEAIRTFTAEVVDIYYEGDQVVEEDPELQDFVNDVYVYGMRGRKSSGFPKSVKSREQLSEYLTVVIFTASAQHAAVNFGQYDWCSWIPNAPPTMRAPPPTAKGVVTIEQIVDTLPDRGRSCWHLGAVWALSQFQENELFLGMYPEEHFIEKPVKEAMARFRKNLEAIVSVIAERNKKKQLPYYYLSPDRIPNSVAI
Briefly: Inhibition of 5-LOX in human whole blood assessed as inhibition of LTB4 formation preincubated for 10 mins followed by calcium ionophore A23187 addition and measured after 30 min by RIA/RP--HPLC analysis. It is filed as tissue-based.

For assay [13], the target named is T3, Polyunsaturated fatty acid 5-lipoxygenase. As to the kind of experiment: Inhibition of 5-LOX in human PMNL cells assessed as inhibition of LTB4 formation preincubated for 5 mins followed by calcium ionophore A23187 addition and measured after 6 min by HPLC analysis. It counts as cell-based.
Assay [14] has as its target T2, Arachidonate 5-lipoxygenase-activating protein. Briefly: Displacement of [125I]-L-691831 from recombinant human FLAP expressed in Sf9 insect cells incubated for 2 hr by scintillation proximity assay. For orientation: In a radioligand displacement assay an active substance lowers the binding of a labelled ligand.
For assay [15] the target is unchanged. Briefly: Inhibition of FLAP in human whole blood assessed as reduction in all-trans isomers of LTB4 and 5-HETE formation preincubated with enzyme for 15 mins followed by fMLP addition and measured after 15 mins by HPLC analysis. It is filed as tissue-based.
Assay [16] has the same target. As to the kind of experiment: Inhibition of FLAP in human neutrophil assessed as reduction in all-trans isomers of LTB4 and 5-HETE formation using arachidonic acid as substrate preincubated with enzyme for 15 mins followed by substrate addition and A23187 measured after 10 mins by ELISA assay. It counts as cell-based. For orientation: ELISA stands for enzyme-linked immunosorbent assay.

For another assay, the target named is T4, Prostaglandin E synthase (Homo sapiens, UniProt O14684).
T4 sequence (O14684 whole entry): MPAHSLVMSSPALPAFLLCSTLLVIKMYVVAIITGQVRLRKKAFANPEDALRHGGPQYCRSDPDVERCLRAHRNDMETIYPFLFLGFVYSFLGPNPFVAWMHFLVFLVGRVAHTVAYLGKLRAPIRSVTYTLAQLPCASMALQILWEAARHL
Briefly: Inhibition of mPGES-1 activity in IL-1beta human A549 microsome using PGH2 as substrate preincubated for 15 mins followed by substrate addition for 1 min by RP-HPLC analysis. It is filed as microsomes.

Assay [17] has as its target T2, Arachidonate 5-lipoxygenase-activating protein. As to the kind of experiment: Inhibition of FLAP in human monocyte assessed as reduction in all-trans isomers of LTB4 and 5-HETE formation preincubated with enzyme for 15 mins followed by A23187 addition and measured after 10 mins by ELISA assay. It is filed as cell-based.
The target in assay [18] is T3, Polyunsaturated fatty acid 5-lipoxygenase. As to the kind of experiment: Inhibition of recombinant human 5-LO expressed in Escherichia coli JM109 using arachidonic acid as substrate incubated for 10 mins by HPLC analysis.
The target of assay [19] is T2, Arachidonate 5-lipoxygenase-activating protein. As to the kind of experiment: Inhibition of FLAP in human PMNL cells assessed as inhibition of 5-LO product LT formation preincubated for 15 mins followed by calcium ionophore A23187 addition and measured after 10 min by HPLC analysis. It counts as cell-based.

As a reminder, the IC50 is the concentration needed to halve the response being measured. Turning to `O=C(O)CSC(CCCc1ccccc1)(Cc1ccccc1)c1ccc(OCc2ccc3ccccc3n2)cc1` (stereo not drawn), the IC50 in assay [1] is 0.004 µM.

As for `O=C(O)CSC(CCCc1ccccc1)c1ccc(OCc2ccc3ccccc3n2)cc1` (stereo not drawn) [AZD-4769], in assay [2], the IC50 turned out to be 0.07 µM.

For the compound `O=C(O)c1noc(-c2ccc(OCc3ccc4ccccc4n3)cc2)c1-c1ccc(Cl)cc1`, the IC50 in assay [3] and in assay [4] was 0.007 µM each time.

Regarding `Nc1cnc(-c2ccc(C3CCC3)c(Oc3ncccn3)c2F)cn1`, in [5], the concentration for half-maximal inhibition (IC50) came out at 0.066 µM.

Regarding `CC(C)(C)n1c(-c2ccccc2C(=O)Nc2ccccn2)nc2cc(-c3cnc(N)nc3)ccc21`, the IC50 in assay [6] came out at 2.7 µM.

The ED50 is the midpoint of the dose-response relation. Consider `CC(CCC(=O)O)(c1ccc(OCc2ccc3ccccc3n2)cc1)c1ccc(OCc2ccc3ccccc3n2)cc1`, for which the ED50 in the assay on Rattus norvegicus [7] amounted to 1.5 mg/kg. Also, the IC50 in [8] was 0.023 µM.

`CC(C)(/C=N/OCC(=O)O)Cc1c(SC(C)(C)C)c2cc(OCc3ccc4ccccc4n3)ccc2n1Cc1ccc(Cl)cc1`: the IC50 in assay [9] came to 0.012 µM. Moreover, the ED50 in the assay with Rattus norvegicus [10] is 0.24 mg/kg.

For the compound `C/C(=N\O[C@H](c1ccc(OCc2ccc3ccccc3n2)cc1)C1CCCCC1)C(=O)[O-].[Na+]`, the IC50 in the assay listed under Homo sapiens came out at 0.87 µM. Also, the ED50 in the assay with Rattus norvegicus [11] amounted to 0.4 mg/kg.

Consider `O=C(O)[C@@H](c1ccc(OCc2ccc3ccccc3n2)cc1)C1CCCCCC1`, for which the IC50 in assay [12] is 1.1 µM; in assay [13], 0.042 µM.

Regarding `Cc1ccn(-c2ccc(Cl)cc2-c2nc3cc(-c4cnc(N)nc4)ccc3n2C(C)(C)C)n1`, the IC50 in assay [14] was 0.0007 µM.

On to `O=C(O)[C@@H](c1ccc(OCc2ccc3ccccc3n2)cc1)C1CCCC1` [VELIFLAPON], for which the IC50 came out at 6 µM in the assay listed under Homo sapiens, 11.6 µM in assay [12] and 0.22 µM in assay [13]. The ED50 in the assay with Rattus norvegicus [11] came out at 4 mg/kg.

For the compound `O=C(O)CSC(CCCc1ccc(Cl)cc1)c1ccc(OCc2ccc3ccccc3n2)cc1` (stereo not drawn), the IC50 in assay [2] stood at 0.02 µM.

On to `CNC(=O)c1ccc(F)cc1-c1nc2cc(-c3cnc(N)nc3)ccc2n1C(C)(C)C`, for which the IC50 in assay [6] is 0.13 µM.

As for `CC(C)(CO/N=C/C(=O)O)Cc1c(SC(C)(C)C)c2cc(OCc3ccc4ccccc4n3)ccc2n1Cc1ccc(Cl)cc1`, the IC50 in assay [9] is 0.021 µM. Also, in the assay with Rattus norvegicus [10], the ED50 turned out to be 0.9 mg/kg.

For the compound `CC(C)(C)c1ccc(-c2cnc(N)cn2)c(F)c1`, the IC50 in [5] was found to be 0.6 µM.

`CNC(=O)c1ccc(C#N)cc1-c1nc2cc(-c3cnc(N)nc3)ccc2n1C(C)(C)C`: in [6], the IC50 stood at 0.094 µM.

For `CC(C)Cc1ccc(C(C)c2nc3ccccc3n2Cc2ccccc2Cl)cc1` (stereo not drawn), the IC50 in assay [15] stood at 4.8 µM; in [16], 0.15 µM; against Prostaglandin E synthase, 0.2 µM; in assay [17], 0.04 µM.

In the case of `c1ccc(COCC(OCc2ccccc2)c2ccc(OCc3ccc4ccccc4n3)cc2)cc1` (stereo not drawn), the IC50 in assay [1] stood at 0.03 µM.

In the case of `Nc1cnc(-c2ccc(-c3ccccc3S(N)(=O)=O)cc2F)cn1`, the IC50 in [5] stood at 0.39 µM.

As for `CC1(C)Cc2c(-c3ccccc3)c(-c3ccc(Cl)cc3)c(CC(=O)O)n2C1` [LICOFELONE], the figures for the IC50 in assay [18] and in [19] were over 10 µM and 1.7 µM, respectively.

The record behind these values is ChEMBL document CHEMBL5244204, “Drug discovery approaches targeting 5-lipoxygenase-activating protein (FLAP) for inhibition of cellular leukotriene biosynthesis” (Eur J Med Chem, 2018).
